What was measured:
Type in all cases: biochemical
[1] = target: alcohol dehydrogenase KpADH (SEQ ID No. 2) mutant F320W/S237A (Vanderwaltozyma polyspora, UniProt A7TM80, form not given/S237A); assay: Kinetic analysis of alcohol dehydrogenase mutant (CPMK reduction, NADPH absorption at 340 nm); conditions: substrate CPMK, pH 7.0, 30° C.
Protocol: (§1) Adopting a total reaction system of 200 μL, including: 1.0 mM NADPH, 1.0 mM substrate CPMK and sodium phosphate buffer (PBS, 100 mM, pH 7.0), fully and evenly mixing, maintaining at 30° C. for 2 min, adding an appropriate amount of enzyme solution, and detecting the change in light absorption at 340 nm.
(§2) The enzyme activity was calculated by the following formula: Enzyme activity (U)=EW×V×10^3/(6220×I);
(§3) in the formula, EW is the change in absorbance at 340 nm in 1 min; V is the volume of a reaction solution in mL; 6220 is the molar extinction coefficient of NADPH in L/mol·cm); and 1 is the optical path distance in cm. One activity unit (U) corresponds to the amount of enzyme required to catalyze the oxidation of 1 μmol NADPH per minute under the above conditions.
(§4) A column used for purification was a nickel affinity column HisTrap FF crude, and purification was achieved through affinity chromatography using a histidine tag on recombinant protein. The nickel column was equilibrated with a solution A first, a crude enzyme solution was loaded, a penetrating peak was further eluted off using the solution A, and after equilibrium, a solution B (20 mM sodium phosphate, 500 mM NaCl, and 1000 mM imidazole, pH 7.4) was used for gradient elution to elute off the recombinant protein bound to the nickel column, so as to obtain the recombinant alcohol dehydrogenase mutant. The purified protein was subjected to activity measurement (CPMK as substrate, and NADPH as coenzyme) and SDS-PAGE analysis. […] The purified alcohol dehydrogenase protein was then replaced into a Tris-HCl (100 mM, pH 7.0) buffer using a Hi Trap Desalting column (GE Healthcare).
(§5) The activity of KpADH at different substrate concentrations and coenzyme concentrations was determined, and a double reciprocal curve was made based on the reciprocal of activity and substrate concentration to calculate kinetic parameters.
(§6) Two mutants of S237A and S237C valuable for modification of asymmetric synthesis R- and S- are obtained by random mutation screening, and the two sites are used as templates for random mutation. […] It can be known by combining the data in Tables 2 and 3 that the 214 site of alcohol dehydrogenase is a site that is important for determining selectivity improvement and inversion.

[2] = target: alcohol dehydrogenase KpADH (SEQ ID No. 2) mutant F320V/S237A (Vanderwaltozyma polyspora, UniProt A7TM80, form not given/S237A); assay: as above; conditions: substrate CPMK, pH 7.0, 30° C.
Protocol: as §1, §2, §3, §4, §5, §6

[3] = target: alcohol dehydrogenase KpADH, wild type (WT), SEQ ID No. 2 (Vanderwaltozyma polyspora, UniProt A7TM80); assay: Kinetic analysis of alcohol dehydrogenase (CPMK reduction, NADPH absorption at 340 nm); design: unit not given here
Protocol: as §1, §2, §3, §4, §5

Work on `O=C(c1ccc(Cl)cc1)c1ccccn1` [CPMK, (4-chlorophenyl)-(pyridin-2-yl)-methanone] yielded a Kcat [1] of 11.07 ± 0.25 s⁻¹, a Km [1] of 1660 ± 20 µM and a Vmax [1] of 16.6 ± 0.37 µM/min/mg. It also gave a Kcat [2] of 5.9 ± 0.09 s⁻¹, a Km [2] of 1150 ± 50 µM and a Vmax [2] of 8.9 ± 0.78 µM/min/mg. It also gave a Km [3] of 0.76.
